Measured values published in the NIST ThermoML archive (doi:10.1021/je800251v).
Numbers after ± are expanded uncertainties.

Conditions: Liquid

CCCC(=O)OCC [ethyl butanoate]
mass density (338.15 K, 100 kPa): 830.3 ± 0.9 kg/m3
mass density (338.15 K, 1000 kPa): 831.5 ± 1 kg/m3
mass density (338.15 K, 2000 kPa): 832.6 ± 1 kg/m3
mass density (338.15 K, 3000 kPa): 833.8 ± 1.1 kg/m3
mass density (338.15 K, 3100 kPa): 833.9 ± 1.1 kg/m3
mass density (338.15 K, 5000 kPa): 835.9 ± 1.2 kg/m3
mass density (338.15 K, 10000 kPa): 841.2 ± 1.4 kg/m3
mass density (338.15 K, 15000 kPa): 846.2 ± 1.6 kg/m3
mass density (338.15 K, 20000 kPa): 850.8 ± 1.8 kg/m3
mass density (338.15 K, 25000 kPa): 855.5 ± 1.9 kg/m3
mass density (338.15 K, 30000 kPa): 861 ± 2.1 kg/m3
mass density (338.15 K, 35000 kPa): 866.5 ± 2.2 kg/m3
mass density (343.15 K, 100 kPa): 824.8 ± 1 kg/m3
mass density (343.15 K, 1000 kPa): 825.9 ± 1 kg/m3
mass density (343.15 K, 2000 kPa): 827.1 ± 1 kg/m3
mass density (343.15 K, 3000 kPa): 828.3 ± 1.1 kg/m3
mass density (343.15 K, 3100 kPa): 828.4 ± 1.1 kg/m3
mass density (343.15 K, 5000 kPa): 830.7 ± 1.2 kg/m3
mass density (343.15 K, 10000 kPa): 836.2 ± 1.4 kg/m3
mass density (343.15 K, 15000 kPa): 841.4 ± 1.6 kg/m3
mass density (343.15 K, 20000 kPa): 846.1 ± 1.8 kg/m3
mass density (343.15 K, 25000 kPa): 850.1 ± 2 kg/m3
mass density (343.15 K, 30000 kPa): 855.7 ± 2.2 kg/m3
mass density (343.15 K, 35000 kPa): 861.8 ± 2.3 kg/m3
mass density (348.15 K, 100 kPa): 819.1 ± 1 kg/m3
mass density (348.15 K, 1000 kPa): 820.3 ± 1 kg/m3
mass density (348.15 K, 2000 kPa): 821.6 ± 1.1 kg/m3
mass density (348.15 K, 3000 kPa): 822.9 ± 1.1 kg/m3
mass density (348.15 K, 3100 kPa): 823 ± 1.1 kg/m3
mass density (348.15 K, 5000 kPa): 825.1 ± 1.2 kg/m3
mass density (348.15 K, 10000 kPa): 830.9 ± 1.4 kg/m3
mass density (348.15 K, 15000 kPa): 836.2 ± 1.6 kg/m3
mass density (348.15 K, 20000 kPa): 841.1 ± 1.9 kg/m3
mass density (348.15 K, 25000 kPa): 846 ± 2 kg/m3
mass density (348.15 K, 30000 kPa): 851.8 ± 2.2 kg/m3
mass density (348.15 K, 35000 kPa): 857.7 ± 2.4 kg/m3
mass density (353.15 K, 100 kPa): 813.5 ± 1 kg/m3
mass density (353.15 K, 1000 kPa): 814.7 ± 1 kg/m3
mass density (353.15 K, 2000 kPa): 816.1 ± 1.1 kg/m3
mass density (353.15 K, 3000 kPa): 817.4 ± 1.2 kg/m3
mass density (353.15 K, 3100 kPa): 817.5 ± 1.1 kg/m3
mass density (353.15 K, 5000 kPa): 819.8 ± 1.2 kg/m3
mass density (353.15 K, 10000 kPa): 825.7 ± 1.5 kg/m3
mass density (353.15 K, 15000 kPa): 831.2 ± 1.7 kg/m3
mass density (353.15 K, 20000 kPa): 836.3 ± 1.9 kg/m3
mass density (353.15 K, 25000 kPa): 841.4 ± 2.1 kg/m3
mass density (353.15 K, 30000 kPa): 847.4 ± 2.3 kg/m3
mass density (353.15 K, 35000 kPa): 853.4 ± 2.4 kg/m3
mass density (363.15 K, 100 kPa): 799.9 ± 1 kg/m3
mass density (363.15 K, 1000 kPa): 801.4 ± 1.1 kg/m3
mass density (363.15 K, 2000 kPa): 803 ± 1.1 kg/m3
mass density (363.15 K, 3000 kPa): 804.5 ± 1.2 kg/m3
mass density (363.15 K, 3100 kPa): 804.7 ± 1.3 kg/m3
mass density (363.15 K, 5000 kPa): 807.9 ± 1.3 kg/m3
mass density (363.15 K, 10000 kPa): 814.4 ± 1.5 kg/m3
mass density (363.15 K, 15000 kPa): 820.7 ± 1.8 kg/m3
mass density (363.15 K, 20000 kPa): 826.7 ± 2 kg/m3
mass density (363.15 K, 25000 kPa): 832.4 ± 2.2 kg/m3
mass density (363.15 K, 30000 kPa): 837.7 ± 2.4 kg/m3
mass density (363.15 K, 35000 kPa): 842.7 ± 2.5 kg/m3
mass density (373.15 K, 100 kPa): 788.5 ± 1.1 kg/m3
mass density (373.15 K, 1000 kPa): 790.1 ± 1.1 kg/m3
mass density (373.15 K, 2000 kPa): 791.7 ± 1.2 kg/m3
mass density (373.15 K, 3000 kPa): 793.4 ± 1.2 kg/m3
mass density (373.15 K, 3100 kPa): 793.6 ± 1.2 kg/m3
mass density (373.15 K, 5000 kPa): 796.8 ± 1.3 kg/m3
mass density (373.15 K, 10000 kPa): 804 ± 1.6 kg/m3
mass density (373.15 K, 15000 kPa): 810.8 ± 1.8 kg/m3
mass density (373.15 K, 20000 kPa): 817.2 ± 2.1 kg/m3
mass density (373.15 K, 25000 kPa): 823.1 ± 2.3 kg/m3
mass density (373.15 K, 30000 kPa): 828.7 ± 2.5 kg/m3
mass density (373.15 K, 35000 kPa): 834 ± 2.7 kg/m3
mass density (383.15 K, 100 kPa): 776.9 ± 1.1 kg/m3
mass density (383.15 K, 1000 kPa): 778.6 ± 1.1 kg/m3
mass density (383.15 K, 2000 kPa): 780.4 ± 1.2 kg/m3
mass density (383.15 K, 3000 kPa): 782.2 ± 1.3 kg/m3
mass density (383.15 K, 3100 kPa): 782.4 ± 1.3 kg/m3
mass density (383.15 K, 5000 kPa): 785.5 ± 1.4 kg/m3
mass density (383.15 K, 10000 kPa): 793.5 ± 1.7 kg/m3
mass density (383.15 K, 15000 kPa): 800.8 ± 1.9 kg/m3
mass density (383.15 K, 20000 kPa): 807.5 ± 2.1 kg/m3
mass density (383.15 K, 25000 kPa): 813.8 ± 2.4 kg/m3
mass density (383.15 K, 30000 kPa): 819.6 ± 2.6 kg/m3
mass density (383.15 K, 35000 kPa): 825.2 ± 2.8 kg/m3
mass density (393.15 K, 100 kPa): 765.1 ± 1.1 kg/m3
mass density (393.15 K, 1000 kPa): 766.9 ± 1.2 kg/m3
mass density (393.15 K, 2000 kPa): 768.8 ± 1.2 kg/m3
mass density (393.15 K, 3000 kPa): 770.8 ± 1.3 kg/m3
mass density (393.15 K, 3100 kPa): 771 ± 1.3 kg/m3
mass density (393.15 K, 5000 kPa): 774.5 ± 1.4 kg/m3
mass density (393.15 K, 10000 kPa): 783.1 ± 1.7 kg/m3
mass density (393.15 K, 15000 kPa): 790.9 ± 2 kg/m3
mass density (393.15 K, 20000 kPa): 798 ± 2.2 kg/m3
mass density (393.15 K, 25000 kPa): 804.6 ± 2.5 kg/m3
mass density (393.15 K, 30000 kPa): 810.7 ± 2.7 kg/m3
mass density (393.15 K, 35000 kPa): 816.6 ± 2.9 kg/m3
